We go through 3 compounds from patent US20240252496A1, “SELECTIVE HYPOTHALAMUS PERMEABLE HDAC6 INHIBITORS FORTREATMENT OF LEPTIN-RESISTANT OBESITY” (The Children’s Medical Center Corporation, priority 2022, published 2024).

For experiment [1], the system named is DIO mice. Description: Glucose homeostasis in chronically treated DIO mice (GTT, ITT, insulin, HOMA-IR, liver H&E). Particulars: for blood glucose levels / glucose tolerance (GTT): after 1 week; for circulating/serum insulin levels / hepatic steatosis (liver H&E) / insulin resistance (HOMA-IR): after 3 weeks. It counts as in vivo. The protocol: DIO mice were treated with ACY775 (10 mg/kg/day, i.p.) for 3 weeks. Daily body weight (g) of DIO mice treated with vehicle (n=17) or ACY775 (n=17) during 3 weeks of treatment was determined. Daily food intake (g) during 3 weeks of vehicle or ACY775 treatment was assessed. 24 hours' food intake per mouse during the first week of vehicle or ACY775 treatment was determined. Serum leptin (ng/ml) levels after 3 weeks of vehicle (n=24) or ACY775 (n=24) treatment was assessed. Lean mass (g), fat mass (g) and fat percentage (%) after 3 weeks of vehicle (n=17) or ACY775 (n=17) treatment measured by Dual-energy X-ray absorptiometry (DEXA) scan. DEXA scans were performed in two different cohorts. Glucose tolerance test (GTT) after 1 week of vehicle (n=33) or ACY775 (n=26) treated DIO mice was assessed. Area of curve (AOC) analysis for GTT was performed. Blood glucose (mg/dl) levels after 1 week of vehicle (n=17) or ACY775 (n=16) were assessed in treated DIO mice. Insulin tolerance test (ITT) was performed after 2 weeks of vehicle (n=31) or ACY775 (n=21) treatment of DIO mice. Serum insulin (ng/ml) levels were measured after 3 weeks of vehicle (n=22) or ACY775 (n=21) in treated DIO mice. A homeostatic model assessment of insulin resistance (HOMA-IR) was analyzed after 3 weeks of vehicle (n=14) or ACY775 (n=13) treated DIO mice. […]
Blood glucose (mg/dl) levels were measured after 1 week of vehicle (n=16) or ricolinostat (n=16) treated DIO mice. GTT after 1 week of vehicle (n=17) or ricolinostat (n=16) treatment of DIO mice was assessed. AOC analysis for GTT was performed. ITT after 2 weeks of vehicle (n=17) or ricolinostat (n=16) treated DIG mice was measured. Serum insulin (ng/ml) levels after 3 weeks of vehicle (n=8) or ricolinostat (n=8) treatment were measured in DIO mice. Liver sections from 3 weeks of vehicle or ricolinostat treated DIG mice were stained by H&E.

Experiment [2] relates to DIO mice. Kind of experiment: Chronic treatment of DIO mice (body weight, food intake, leptin, DEXA). It counts as in vivo. Particulars: for body weight after treatment / decrease in body weight: 3 weeks; for body weight after treatment / decrease in body weight / body weight before treatment / daily food intake under treatment: ACY775 10, ACY738 50 mg/kg/day i.p.; for fat mass (DEXA) / fat percentage (DEXA) / lean mass (DEXA) / circulating/serum leptin levels: after 3 weeks; for circulating/serum leptin levels: ACY775 10, ACY738 50, ricolinostat 50 mg/kg i.p.; for food intake and total body fat mass: high fat diet induced mice, summary. The procedure: DIO mice were treated with ACY775 (10 mg/kg/day, i.p.) for 3 weeks. Daily body weight (g) of DIO mice treated with vehicle (n=17) or ACY775 (n=17) during 3 weeks of treatment was determined. Daily food intake (g) during 3 weeks of vehicle or ACY775 treatment was assessed. 24 hours' food intake per mouse during the first week of vehicle or ACY775 treatment was determined. Serum leptin (ng/ml) levels after 3 weeks of vehicle (n=24) or ACY775 (n=24) treatment was assessed. Lean mass (g), fat mass (g) and fat percentage (%) after 3 weeks of vehicle (n=17) or ACY775 (n=17) treatment measured by Dual-energy X-ray absorptiometry (DEXA) scan. DEXA scans were performed in two different cohorts. Glucose tolerance test (GTT) after 1 week of vehicle (n=33) or ACY775 (n=26) treated DIO mice was assessed. Area of curve (AOC) analysis for GTT was performed. Blood glucose (mg/dl) levels after 1 week of vehicle (n=17) or ACY775 (n=16) were assessed in treated DIO mice. Insulin tolerance test (ITT) was performed after 2 weeks of vehicle (n=31) or ACY775 (n=21) treatment of DIO mice. Serum insulin (ng/ml) levels were measured after 3 weeks of vehicle (n=22) or ACY775 (n=21) in treated DIO mice. A homeostatic model assessment of insulin resistance (HOMA-IR) was analyzed after 3 weeks of vehicle (n=14) or ACY775 (n=13) treated DIO mice.
Food intake was analyzed hourly until 3:00 am. […] DEXA scans were performed in two different cohorts.
DIO mice then were treated with ricolinostat (50 mg/kg, i.p.) for 3 weeks. Daily body weight (g), daily food intake (g), serum leptin (ng/ml) levels after 3 weeks of vehicle (n=8) or ricolinostat (n=8) treatment, lean mass (g); fat mass and fat percentage (%) after 3 weeks of vehicle (n=16) or ricolinostat (n=17) treatment measured by DEXA scan were determined.
Studies were conducted as described above with reference to ACY775.
DIO mice then were treated with bavarostat (10 mg/kg, i.p.) for 3 weeks and daily body weight (g) of DIO mice treated with Veh (n=9) or bavarostat (n=9) measured during the three weeks of treatment period. Daily food intake (g) during 3 weeks of Veh or bavarostat treatment was also measured.
ACY1083 was administered to DIO mice as described in Example 3.

The subject of experiment [3] is STAT3^Tyr705 phosphorylation. Kind of experiment: Leptin-stimulated hypothalamic STAT3 phosphorylation in DIO mice. It counts as in vivo. To be noted: 45 min after leptin 1 mg/kg i.p., ACY775 10, ACY738 50, ricolinostat 50 mg/kg/day i.p. The procedure:
DIO mice were pretreated with ACY775 (10 mg/kg/day, i.p.) or vehicle for 3 days, which was followed by a last injection of ACY775 (or vehicle) in the morning of fourth day. 6 hours later mice were injected with saline or leptin (1 mg/kg, i.p.) and hypothalamus were extracted after 45 minutes following the leptin injection. Representative immunoblots for STAT3^Tyr705 phosphorylation and total STAT3 from the hypothalamus. Quantification of the ratio of p-STAT3^Tyr705 to total-STAT3 signal in the immunoblots. The results were reproduced in three independent experiments. The results were analyzed hourly.
DIO mice were pretreated with ACY775 (10 mg/kg/day, i.p.) or vehicle for 3 days, which was followed by a last injection of ACY775 (or vehicle) in the morning of fourth day. 6 hours later mice were injected with saline or leptin (1 mg/kg, i.p.) and the hypothalamus were extracted after 45 minutes following the leptin injection.
6 hours later mice were injected with saline or leptin (1 mg/kg, i.p.) and hypothalamus were extracted after 45 minutes following the leptin injection. Immunoblots for STAT3^Tyr705 phosphorylation and total STAT3 from the hypothalamus were made to quantify the ratio of p-STAT3^Tyr705 to total-STAT3 signal in the immunoblots. The results were reproduced in two independent experiments.
DIO mice were pretreated with ricolinostat (50 mg/kg/day, i.p.) or vehicle 3 days, which was followed by a last injection of ricolinostat (or vehicle) in the morning of fourth day. 6 hours later mice were injected with saline or leptin (1 mg/kg, i.p.) and the hypothalamus were extracted after 45 minutes following the leptin injection. Immunoblots were performed for STAT3^Tyr705 phosphorylation and total STAT3 from the hypothalamus. The ratio of p-STAT3^Tyr705 to total STAT3 signal in the immunoblots was quantified.

Another experiment relates to HDAC6. Description: Ac-tubulin immunoblotting in HEK293 cells. The experiment is classed as cell-based.

Entries after “also recorded” stand apart in the source; their conditions may differ.

In the case of `O=C(NO)c1cnc(NC2(c3cccc(F)c3)CCCCC2)nc1` [ACY775, 2-[[1-(3-fluorophenyl)cyclohexyl]amino]-N-hydroxy-5-pyrimidinecarboxamide], in the experiment with DIO mice [1], the “insulin tolerance test (ITT) / insulin sensitivity” value is “significant difference between ACY775-treated mice and those treated with vehicles”; the blood glucose levels result is reported as “significantly reduced”; the “glucose tolerance (GTT)” value is “significantly improved glucose tolerance”; the circulating/serum insulin levels entry was “significantly reduced the circulating insulin levels”. For the same compound, in the experiment on DIO mice [1], the “hepatic steatosis (liver H&E)” value is on record as “almost completely abolished hepatic steatosis” and the “insulin resistance (HOMA-IR)” value is listed as “significantly reduced the insulin resistance”. Also, in the experiment on DIO mice [2] (DIO mice), the “average food intake during the first week vs control” value is reported as “highly significant reduction”, the “daily food intake before treatment” value is 2.54 ± 0.10 g, the “body weight after treatment” value worked out at 33.53 ± 1.19 g and the “decrease in body weight” value was 29.58%±1.79%. In addition, in the experiment on DIO mice [2] (DIO mice), the “fat mass (DEXA)” value is recorded as “significantly lower”, the “fat percentage (DEXA)” value is “significantly lower”, the “lean mass (DEXA)” value is on record as “did not alter the lean mass” and the circulating/serum leptin levels entry was “significantly downregulated”. For the same compound, in the experiment with DIO mice [2] (DIO mice), the “body weight before treatment” value came to 48.25 ± 0.87 g and the “daily food intake under treatment” value came to 0.85 ± 0.06 g. The “food intake and total body fat mass” value in the experiment on DIO mice [2] was “significant reduction of food intake and total body fat mass”. Also, the “leptin-stimulated hypothalamic p-STAT3^Tyr705 in inhibitor-pretreated mice” value in experiment [3] is recorded as “increased significantly”. Besides, in the experiment on HDAC6, the “tubulin acetylation (HDAC6 inhibitor activity) in cells” value is listed as “increases tubulin acetylation”.
Consider `O=C(CCCCCCNC(=O)c1cnc(N(c2ccccc2)c2ccccc2)nc1)NO` [Ricolinostat], for which, in the experiment on DIO mice [1], the “insulin tolerance test (ITT) / insulin sensitivity” value is recorded as “did not improves glucose tolerance (FIG. 8M) or insulin sensitivity”, the blood glucose levels entry was “did not reduce blood glucose levels”, the “glucose tolerance (GTT)” value was “did not improves glucose tolerance” and the circulating/serum insulin levels entry was “did not reduce insulin levels”. Further, the “hepatic steatosis (liver H&E)” value in the experiment on DIO mice [1] was “no decrease in the hepatic steatosis”. Moreover, the “body weight effect of chronic treatment” value in the experiment with DIO mice [2] (DIO mice, 3 weeks i.p., bavarostat 10, citarinostat 25, ricolinostat 50 mg/kg) is recorded as “minimal decrease in bodyweight for the first couple of days without creating any meaningful or significant decreases; also recorded: does not reduce body weight”. The “food intake during chronic treatment” value with DIO mice [2] (DIO mice, 3 weeks i.p., bavarostat 10, ricolinostat 50 mg/kg) was “reduced transitionally during the first 2-3 days of treatment but then rebounded”. The “leptin-stimulated hypothalamic p-STAT3^Tyr705 in inhibitor-pretreated mice” value in experiment [3] is on record as “did not significantly increase STAT3^Tyr705 phosphorylation”. In the experiment on HDAC6, the “tubulin acetylation (HDAC6 inhibitor activity) in cells” value is “confirmation of Ricolinstat's HDAC6 inhibitory activity”.
`O=C(NO)c1cnc(NC2(c3ccccc3)CC2)nc1` [ACY738]: in the experiment with DIO mice [1], the “insulin tolerance test (ITT) / insulin sensitivity” value was “improved insulin tolerance”, the blood glucose levels result was “significantly reduced”, the “glucose tolerance (GTT)” value was “significant improvement of glucose homeostasis” and the circulating/serum insulin levels entry is given as “reduced insulin levels”. Also, in the experiment on DIO mice [1], the “hepatic steatosis (liver H&E)” value is recorded as “improved hepatic steatosis” and the “insulin resistance (HOMA-IR)” value is on record as “ameliorated insulin resistance”. In addition, in the experiment on DIO mice [2] (DIO mice), the “average food intake during the first week vs control” value is given as “severely reduced”, the “daily food intake before treatment” value was 2.35 ± 0.10 g, the “body weight after treatment” value stood at 37.74 ± 1 g and the “decrease in body weight” value is listed as 20.21%±1.32%. In the experiment with DIO mice [2] (DIO mice), the “fat mass (DEXA)” value is reported as “significantly decreased”, the “fat percentage (DEXA)” value is reported as “significantly decreased”, the “lean mass (DEXA)” value is given as “no change in the lean body mass” and the circulating/serum leptin levels result is “significantly decreased”. Besides, in the experiment on DIO mice [2] (DIO mice), the “body weight before treatment” value is 46.43 ± 0.74 g and the “daily food intake under treatment” value amounted to 1.32 ± 0.05 g. Besides, in the experiment with DIO mice [2], the “food intake and total body fat mass” value is “significant reduction of food intake and total body fat mass”. In addition, the “leptin-stimulated hypothalamic p-STAT3^Tyr705 in inhibitor-pretreated mice” value in experiment [3] is listed as “substantially increased”. In the experiment on HDAC6, the “tubulin acetylation (HDAC6 inhibitor activity) in cells” value was “inhibits the HDAC6 activity”.
